The text below walks through data of ChEMBL document CHEMBL3879912, “4-alkoxy/aralkoxy-5-substituted-pyrrolopyrimidine compounds as TAK1 inhibitors in disease treatment” (2014).

pIC50: −log10 of the molar value.

This assay deals with TAK1/TAB1 (Homo sapiens, UniProt O43318). The assay can be described thus: Inhibition of kinase tracer-236 binding to full length recombinant human His-tagged TAK1-TAB1 expressed in baculovirus by FRET assay.
Sequence of TAK1/TAB1 (Q15750 whole entry): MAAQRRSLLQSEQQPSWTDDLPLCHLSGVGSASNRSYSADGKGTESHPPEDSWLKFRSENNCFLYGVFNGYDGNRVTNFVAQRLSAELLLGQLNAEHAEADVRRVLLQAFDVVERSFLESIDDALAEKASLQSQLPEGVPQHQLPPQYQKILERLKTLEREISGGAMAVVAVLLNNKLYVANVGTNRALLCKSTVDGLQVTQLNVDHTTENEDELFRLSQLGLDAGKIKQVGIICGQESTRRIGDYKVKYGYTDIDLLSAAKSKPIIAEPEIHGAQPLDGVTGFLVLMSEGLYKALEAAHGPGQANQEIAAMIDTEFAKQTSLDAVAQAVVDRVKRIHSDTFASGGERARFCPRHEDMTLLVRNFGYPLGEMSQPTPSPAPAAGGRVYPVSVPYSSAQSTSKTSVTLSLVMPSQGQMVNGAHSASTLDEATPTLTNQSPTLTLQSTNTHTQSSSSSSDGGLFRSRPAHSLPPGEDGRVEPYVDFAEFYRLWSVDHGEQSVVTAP
Sequence of TAK1/TAB1 (O43318 whole entry): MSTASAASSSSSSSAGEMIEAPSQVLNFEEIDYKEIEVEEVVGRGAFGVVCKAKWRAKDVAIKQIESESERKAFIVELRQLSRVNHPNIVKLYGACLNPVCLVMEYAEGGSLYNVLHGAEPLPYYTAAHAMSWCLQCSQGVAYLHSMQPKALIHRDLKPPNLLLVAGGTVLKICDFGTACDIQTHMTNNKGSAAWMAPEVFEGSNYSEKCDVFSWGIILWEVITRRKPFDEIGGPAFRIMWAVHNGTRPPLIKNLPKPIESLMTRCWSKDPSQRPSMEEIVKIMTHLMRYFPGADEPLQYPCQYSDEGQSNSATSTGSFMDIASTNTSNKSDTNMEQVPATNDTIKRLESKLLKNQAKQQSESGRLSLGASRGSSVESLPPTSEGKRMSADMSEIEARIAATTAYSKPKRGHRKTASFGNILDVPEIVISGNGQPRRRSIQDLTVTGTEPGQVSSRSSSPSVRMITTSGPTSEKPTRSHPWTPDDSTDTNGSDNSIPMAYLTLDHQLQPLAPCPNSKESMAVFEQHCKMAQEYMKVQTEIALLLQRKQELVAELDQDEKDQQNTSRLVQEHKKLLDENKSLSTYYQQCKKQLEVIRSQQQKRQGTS
Regarding `CC(C)COc1ncnc2[nH]cc(C#CC(N)=O)c12`, the pIC50 (as a rule, the negative decadic logarithm of the IC50, by convention in mol/L) was 8.15.

Consider `N#C/C=C/c1c[nH]c2ncnc(OCc3ccccc3)c12`, for which the pIC50 was 6.48. Regarding `COC(=O)/C(C)=C/c1c[nH]c2ncnc(OCC(C)C)c12`, the pIC50 is 6.37. Regarding `NC(=O)/C=C/c1c[nH]c2ncnc(OCc3cccc(F)c3)c12`, the negative logarithm of the IC50 (pIC50) is 7.29. Take `CC(=O)c1c[nH]c2ncnc(OCC(C)C)c12`: the negative logarithm of the IC50 (pIC50) was 5.77.
